Experiments:
[1] = tested on: AKT phosphorylation in cardiomyocytes; assay: Effect of neuregulin peptides on the phosphorylation of AKT in cardiomyocytes (western blot); format: cell-based, rat; settings: cardiac cells from left ventricles of neonatal rats, different concentrations, 20 minutes, FIG. 1
Procedure: To study the effect of synthesized peptides on ErbB2 and ErbB4 signaling in cardiomyocytes, cardiac cells extracted from left ventricles of neonatal rats were used.
Cardiac cells were grown in media with serum for 2 days. After the cells reached about 80% confluence, the media was changed to serum free media. After another 24 hours, different amounts of synthesized neuregulin peptides or neuregulin were added into separate wells containing the cells for 20 minutes. The media was then aspirated and gel loading buffer was added to lyse the cells. The sample was then harvested and loaded into a separate well of gel for electrophoresis and western blot analysis.

ErbB2 receptor = biological target: T1, ErbB2 receptor (Homo sapiens, UniProt P04626+P21860); assay: Receptor binding: neuregulin-induced ErbB2 phosphorylation in MCF-7 cells (ErbB2 antibody H4 capture, anti-phosphotyrosine ELISA); format: cell-based; settings: 20 min at 37° C., concentration achieving 50% of maximum OD value at 450 nm
T1 construct: endogenous in cells; host or cells: MCF-7
Excerpt: Briefly, the assay measures neuregulin induced ErbB2 activation and phosphorylation on the adherent breast carcinoma cell line, MCF-7. Membrane proteins are solubilized via Triton X-100 lysis and the receptor is captured in ELISA wells coated with ErbB2-specific antibodies (e.g., H4) with no cross-reaction to ErbB3 or ErbB4. The degree of receptor phosphorylation is then quantified by antiphosphotyrosine ELISA.
MCF-7 cells was harvested, counted, pelleted and resuspended into DMEM (with 10% serum and 9 μg/ml insulin) at 5×10^4 cells/ml. 100 μl cell suspension was added to each well of 96 well plate and the plate was incubated at 37° C. overnight. The cells were then washed 3 times with PBS and grew in serum free DMEM for another 24 hours.
ErbB2 antibody H4 (Zensun, anti-ErbB2 monoclonal antibody) was diluted to 6 μg/ml by coating buffer (50 mM Na2CO3—NaHCO3, pH9.6), and added to 96 well plate 50 μl/well. The plate was left at 4° C. overnight to coat with antibody.
DMEM was added to two wells as blank. The plate was incubated at 37° C. for 20 min. The cells were washed once with PBS before adding 100 μl/well lysis buffer (50 mM Hepes, pH 8.0, 150 mM NaCl, 2 mM sodium orthovanadate, 0.01% thimerosal, 1% Triton X-100 and one protease inhibitor cocktail tablet per 25 ml solution) and lysing at 4° C. for 30 min. […]

Molecule	effect on AKT phosphorylation compared with NRG [1]	EC50 (ErbB2 receptor) [mg/L]
CSCC[C@@H]1NC(=O)[C@H](Cc2ccccc2)NC(=O)[C@@H]2CSSC[C@H](NC(=O)[C@H](CCCCN)NC(=O)[C@@H](NC(=O)[C@H](CC(C)C)NC(=O)[C@H](Cc3c[nH]cn3)NC(=O)[C@@H](N)CO)C(C)C)C(=O)N[C@@H](C)C(=O)N[C@@H](CCC(=O)O)C(=O)N[C@@H](CCCCN)C(=O)N[C@@H](CCC(=O)O)C(=O)N[C@@H](CCCCN)C(=O)N[C@@H]([C@@H](C)O)C(=O)N[C@@H](Cc3ccccc3)C(=O)N[C@@H](CSSC[C@@H](C(=O)N[C@@H](CCCCN)C(=O)N[C@H]3CSSC[C@@H](C(=O)N[C@@H](CCC(N)=O)C(=O)N[C@@H](CC(N)=O)C(=O)N[C@@H](Cc4ccc(O)cc4)C(=O)N[C@H](C(=O)N[C@@H](CCSC)C(=O)N[C@@H](C)C(=O)N[C@@H](CO)C(=O)N[C@@H](Cc4ccccc4)C(=O)N[C@@H](Cc4ccc(O)cc4)C(=O)N[C@@H](CCCCN)C(=O)O)C(C)C)NC(=O)[C@H](CCCNC(=N)N)NC(=O)[C@H](CC(=O)O)NC(=O)CNC(=O)[C@H]([C@@H](C)O)NC(=O)[C@H](Cc4ccccc4)NC(=O)[C@H](CCC(=O)O)NC(=O)[C@H](CC(N)=O)NC(=O)[C@@H]4CCCN4C3=O)NC(=O)[C@H](CC(C)C)NC(=O)[C@H](Cc3ccc(O)cc3)NC(=O)[C@H](CCCNC(=N)N)NC(=O)[C@H](CO)NC(=O)[C@@H]3CCCN3C(=O)[C@H](CC(N)=O)NC(=O)[C@H](CO)NC(=O)[C@H](CC(C)C)NC(=O)[C@H](CC(=O)O)NC(=O)[C@H](CCCCN)NC(=O)[C@H](C(C)C)NC1=O)C(=O)N[C@@H](C(C)C)C(=O)N[C@@H](CC(N)=O)C(=O)NCC(=O)NCC(=O)N[C@@H](CCC(=O)O)C(=O)N2 [NRG55]	much stronger effect than NRG	
CSCC[C@@H]1NC(=O)[C@H](Cc2ccccc2)NC(=O)[C@@H]2CSSC[C@H](NC(=O)[C@H](CCCCN)NC(=O)[C@@H](NC(=O)[C@H](CC(C)C)NC(=O)[C@H](Cc3c[nH]cn3)NC(=O)[C@@H](N)CO)C(C)C)C(=O)N[C@@H](C)C(=O)N[C@@H](CCC(=O)O)C(=O)N[C@@H](CCCCN)C(=O)N[C@@H](CCC(=O)O)C(=O)N[C@@H](CCCCN)C(=O)N[C@@H]([C@@H](C)O)C(=O)N[C@@H](Cc3ccccc3)C(=O)N[C@@H](CSSC[C@@H](C(=O)N[C@@H](CCCCN)C(=O)N[C@H]3CSSC[C@@H](C(=O)N[C@@H](CCC(N)=O)C(=O)N[C@@H](CC(N)=O)C(=O)N[C@@H](Cc4ccc(O)cc4)C(=O)N[C@H](C(=O)N[C@@H](CCSC)C(=O)N[C@@H](C)C(=O)N[C@@H](CO)C(=O)N[C@@H](Cc4ccccc4)C(=O)N[C@@H](Cc4ccc(O)cc4)C(=O)N[C@@H](CCCCN)C(=O)N[C@@H](C)C(=O)N[C@@H](CCC(=O)O)C(=O)O)C(C)C)NC(=O)[C@H](CCCNC(=N)N)NC(=O)[C@H](CC(=O)O)NC(=O)CNC(=O)[C@H]([C@@H](C)O)NC(=O)[C@H](Cc4ccccc4)NC(=O)[C@H](CCC(=O)O)NC(=O)[C@H](CC(N)=O)NC(=O)[C@@H]4CCCN4C3=O)NC(=O)[C@H](CC(C)C)NC(=O)[C@H](Cc3ccc(O)cc3)NC(=O)[C@H](CCCNC(=N)N)NC(=O)[C@H](CO)NC(=O)[C@@H]3CCCN3C(=O)[C@H](CC(N)=O)NC(=O)[C@H](CO)NC(=O)[C@H](CC(C)C)NC(=O)[C@H](CC(=O)O)NC(=O)[C@H](CCCCN)NC(=O)[C@H](C(C)C)NC1=O)C(=O)N[C@@H](C(C)C)C(=O)N[C@@H](CC(N)=O)C(=O)NCC(=O)NCC(=O)N[C@@H](CCC(=O)O)C(=O)N2 [NRG57]	almost have the same effect as NRG	
CSCC[C@@H]1NC(=O)[C@H](Cc2ccccc2)NC(=O)[C@@H]2CSSC[C@H](NC(=O)[C@H](CCCCN)NC(=O)[C@@H](NC(=O)[C@H](CC(C)C)NC(=O)[C@H](Cc3c[nH]cn3)NC(=O)[C@@H](N)CO)C(C)C)C(=O)N[C@@H](C)C(=O)N[C@@H](CCC(=O)O)C(=O)N[C@@H](CCCCN)C(=O)N[C@@H](CCC(=O)O)C(=O)N[C@@H](CCCCN)C(=O)N[C@@H]([C@@H](C)O)C(=O)N[C@@H](Cc3ccccc3)C(=O)N[C@@H](CSSC[C@@H](C(=O)N[C@@H](CCCCN)C(=O)N[C@H]3CSSC[C@@H](C(=O)N[C@@H](CCC(N)=O)C(=O)N[C@@H](CC(N)=O)C(=O)N[C@@H](Cc4ccc(O)cc4)C(=O)N[C@H](C(=O)N[C@@H](CCSC)C(=O)N[C@@H](C)C(=O)N[C@@H](CO)C(=O)N[C@@H](Cc4ccccc4)C(=O)N[C@@H](Cc4ccc(O)cc4)C(=O)N[C@@H](CCCCN)C(=O)N[C@@H](C)C(=O)N[C@@H](CCC(=O)O)C(=O)N[C@@H](CCC(=O)O)C(=O)N[C@@H](CC(C)C)C(=O)O)C(C)C)NC(=O)[C@H](CCCNC(=N)N)NC(=O)[C@H](CC(=O)O)NC(=O)CNC(=O)[C@H]([C@@H](C)O)NC(=O)[C@H](Cc4ccccc4)NC(=O)[C@H](CCC(=O)O)NC(=O)[C@H](CC(N)=O)NC(=O)[C@@H]4CCCN4C3=O)NC(=O)[C@H](CC(C)C)NC(=O)[C@H](Cc3ccc(O)cc3)NC(=O)[C@H](CCCNC(=N)N)NC(=O)[C@H](CO)NC(=O)[C@@H]3CCCN3C(=O)[C@H](CC(N)=O)NC(=O)[C@H](CO)NC(=O)[C@H](CC(C)C)NC(=O)[C@H](CC(=O)O)NC(=O)[C@H](CCCCN)NC(=O)[C@H](C(C)C)NC1=O)C(=O)N[C@@H](C(C)C)C(=O)N[C@@H](CC(N)=O)C(=O)NCC(=O)NCC(=O)N[C@@H](CCC(=O)O)C(=O)N2 [NRG59]	almost have the same effect as NRG	
SHLVKCAEKEKTFCVNGGECFMVKDLSNPSRYLCKCPNEFTGDRCQNYVMASFYKAEELYQ (protein, chains of the parent or of the whole protein) SHLVKCAEKEKTFCVNGGECFMVKDLSNPSRYLCKCPNEFTGDRCQNYVMASFYKAEELYQ		1.439
NRG: full length wild type neuregulin β2 peptide (protein) SHLVKCAEKEKTFCVNGGECFMVKDLSNPSRYLCKCPNEFTGDRCQNYVMASFYKAEELYQ		0.2772

Reference: patent publication US8609620B2, “Neuregulin peptides and their use” (Zensun (Shanghai) Science & Technology Ltd., priority 2008, dated 2013)
